Patent publication US11278555B2, “Combinational therapies for treatment of cancer comprising a bacteriochlorophyll derivative” (Yeda Research and Development Co. Ltd., priority 2016, dated 2022)

Legend:
[1] = system: orthotopic 4T1-Luc tumors; test: STL-6014 PDT and metronomic Gemzar in mice bearing 4T1-Luc tumors in the mammary pad (Scheme 1): primary tumor, survival, lung metastases, re-challenge; assay type: in vivo, Balb/c mice
Experimental: • (i) Bacteriochlorophyll Derivatives—The Bchl derivatives and RGD-conjugates thereof were provided by Steba Biotech (Rehovot, Israel). […] Concentration was verified by spectrophotometric measurement. STL-7012 was provided as dipotassium salt. Working solution was prepared by dissolving STL-7012 K^+ salt in 5% mannitol solution (1 mg/ml). […] WST11 was supplied as a powder and kept in the dark at −20° C. Stock was prepared by dissolving WST11 in DDW containing 5% glucose and 0.67% mannitol, aliquoted and lyophilized. Working solution was reconstituted with DDW and the concentration of solution was confirmed spectrophotometrically. Alternatively, Clinical WST11 (batch: P00611, and 10-130611) was supplied as lyophilized formulation. Material was dissolved in 5% dextrose, aliquoted and stored at −20° C. At the day of treatment the aliquot was thawed, filtered and the concentration of solution was confirmed spectrophotometrically. • (ii) Chemotherapeutic drugs preparation and storage—Gemcitabine (GEM, Gemzar®, Lilly) was purchased from a local pharmacy as a powder, dissolved in saline to a concentration of 38 mg/ml, aliquoted and stored at −20° C. Aliquots were thawed, diluted with saline to a desired concentration and used on the same day at a dose of 75 mg/kg. Cyclophosphamide (CTX, Endoxan®, Baxter Oncology Gmbh, Germany) was purchased from a local pharmacy. A stock solution of 20 mg/ml was prepared by dissolving in 0.9% NaCl, aliquoted and stored at −20° C. Aliquots were thawed, diluted with saline if needed to a desired concentration and used on the same day prepared at indicated doses. • (iii) Murine cell lines—Mammary luciferase (luc)-labeled 4T1 cell line (4T1-Luc) was a kind gift from Dr. Zvi Granot (Faculty of Medicine, The Hebrew University of Jerusalem, Israel); melanoma B16-F10 cell line was obtained from the American Type Culture Collection (ATCC, Manassas, Va.); bladder MB49 cell line was a kind gift from James Allison (MSKCC, New York, USA), and luc-labeled MB49-cell line was established using the murine stem cell virus (MSCV)-puromycin-luc-GFP construct (kindly provided by Dr. Emily Cheng, Human Oncology and Pathogenesis Program, MSKCC). 4T1 and MB49 cells were maintained in DMEM medium and B16-F10 cells in RPMI medium supplemented with 1 mmol/L sodium pyruvate, 10% fetal calf serum (FCS), 250 μg/ml hygromycin, 0.06 mg/ml penicillin and 0.1 mg/ml streptomycin. The cells were grown as monolayer at 37° C. in a humidified atmosphere (5% CO2, 95% air). • (iv) Murine tumor models—Female, Balb/c mice (6-8 week old) were grafted either subcutaneously (s.c.) into the right hind leg or orthotopically with 1×10^6 4T1 cells suspended in 50 or 1000 PBS. For the rechallenge study, 2×10^5 4T1 cells were orthotopically grafted. For bladder cancer model, 5×10^4 of MB49 or MB49-luciferase cell line were s.c. injected into the right flank of C57B/6 male mice (7-8 weeks old, Taconic, Hudson, N.Y.) 15 days prior to VTP treatment. For the efficacy study of VTP in immune compromised mice, the same number of MB49 cells was injected in the flank of Rag^−/− on C57B/6 background or C57B/6 male mice (7-8 week old, Jackson Laboratory, Bar Harbor, Me.). […] Whole body imaging of luciferase-transfected tumors and metastases were recorded five minutes following 75 mg Kg^−1 intraperitoneal (i.p.) injection of D-luciferin with respective filter sets. • (vi) PDT treatment protocol: 4T1-Luc cells were grafted in the mammary pad of Balb/c mice. […]

MB49 tumors = test: WST11 VTP, Gemzar and combination in immune compromised Rag1 KO versus WT mice bearing MB49 tumors; assay type: in vivo; details: Kaplan-Meier
Experimental: (§1) • (i) Bacteriochlorophyll Derivatives—The Bchl derivatives and RGD-conjugates thereof were provided by Steba Biotech (Rehovot, Israel). […] Concentration was verified by spectrophotometric measurement. STL-7012 was provided as dipotassium salt. Working solution was prepared by dissolving STL-7012 K^+ salt in 5% mannitol solution (1 mg/ml). […] WST11 was supplied as a powder and kept in the dark at −20° C. Stock was prepared by dissolving WST11 in DDW containing 5% glucose and 0.67% mannitol, aliquoted and lyophilized. Working solution was reconstituted with DDW and the concentration of solution was confirmed spectrophotometrically. Alternatively, Clinical WST11 (batch: P00611, and 10-130611) was supplied as lyophilized formulation. Material was dissolved in 5% dextrose, aliquoted and stored at −20° C. […] Whole body imaging of luciferase-transfected tumors and metastases were recorded five minutes following 75 mg Kg^−1 intraperitoneal (i.p.) injection of D-luciferin with respective filter sets. • (vi) PDT treatment protocol: 4T1-Luc cells were grafted in the mammary pad of Balb/c mice. […]

[2] = system: CD8, Treg, Teff and TCM T cell populations; test: Adaptive immune response (T cell populations) of mice bearing MB49 tumors; assay type: in vivo
Experimental: • (i) Bacteriochlorophyll Derivatives—The Bchl derivatives and RGD-conjugates thereof were provided by Steba Biotech (Rehovot, Israel). […] Concentration was verified by spectrophotometric measurement. STL-7012 was provided as dipotassium salt. Working solution was prepared by dissolving STL-7012 K^+ salt in 5% mannitol solution (1 mg/ml). […] WST11 was supplied as a powder and kept in the dark at −20° C. Stock was prepared by dissolving WST11 in DDW containing 5% glucose and 0.67% mannitol, aliquoted and lyophilized. Working solution was reconstituted with DDW and the concentration of solution was confirmed spectrophotometrically. Alternatively, Clinical WST11 (batch: P00611, and 10-130611) was supplied as lyophilized formulation. Material was dissolved in 5% dextrose, aliquoted and stored at −20° C. At the day of treatment the aliquot was thawed, filtered and the concentration of solution was confirmed spectrophotometrically. • (ii) Chemotherapeutic drugs preparation and storage—Gemcitabine (GEM, Gemzar®, Lilly) was purchased from a local pharmacy as a powder, dissolved in saline to a concentration of 38 mg/ml, aliquoted and stored at −20° C. Aliquots were thawed, diluted with saline to a desired concentration and used on the same day at a dose of 75 mg/kg. Cyclophosphamide (CTX, Endoxan®, Baxter Oncology Gmbh, Germany) was purchased from a local pharmacy. A stock solution of 20 mg/ml was prepared by dissolving in 0.9% NaCl, aliquoted and stored at −20° C. […] Whole body imaging of luciferase-transfected tumors and metastases were recorded five minutes following 75 mg Kg^−1 intraperitoneal (i.p.) injection of D-luciferin with respective filter sets. • (vi) PDT treatment protocol: 4T1-Luc cells were grafted in the mammary pad of Balb/c mice. […]

[3] = system: 4T1-luc tumors at the mammary pad; test: WST11 VTP combined with CTX or Gemzar in mice bearing 4T1-luc tumors in the mammary pad (Scheme 5); assay type: in vivo, Balb/C mice; details: VTP alone, 9 mg/kg WST11, 200 mW/cm^2 for 15 min
Experimental: as §1

[4] = 120 days follow up, monotherapy

Compound	primary tumor cure [1, 4]	survival compared to control (Kaplan-Meier) [1, 4]	primary cure ([1]; Gemzar only, 75 mg/kg i.p. metronomic)	overall survival of immune compromised (Rag1 KO) mice compared with WT mice (MB49 tumors)	CD8 cell population in the spleen, blood and draining lymph nodes ([2]; 6 days post treatment)	Treg populations (spleen, blood, lymph nodes) ([2]; 6 days post treatment)	CD8 Tcell/Treg ratio ([2]; day 6 post VTP)	survival [3]
Nc1ccn([C@@H]2O[C@H](CO)[C@@H](O)C2(F)F)c(=O)n1 [Gemzar, Gemcitabine]	no primary tumor cure	Extended mice survival	0%					
CCC1c2cc3[n-]c(c(CC(=O)OC)c4nc(cc5[n-]c(cc(n2)C1C)c(C(C)=O)c5C)C(C)C4CCC(=O)[O-])c(C(=O)NCCS(=O)(=O)[O-])c3C.[K+].[K+].[Pd+2] (centres unmarked) [WST11, Palladium 3^1-oxo-15-methoxycarbonylmethyl-rhodobacteriochlorin 13^1-(2-sulfoethyl) amide dipotassium salt]				statistically significant decrease	significant elevation	no significant effect	no increase	very limited survival
